The text below walks through data of the NIST ThermoML archive (doi:10.1016/j.jct.2010.04.011).

Numbers after ± are expanded uncertainties.

One data set is described as follows: activity coefficient (dimensionless); of the first substance listed, at infinite dilution; xn = mol fraction of the nth substance listed. Conditions: 298 K; 101 kPa; Liquid; Chromatography; x1 = 0.
As to `C1=CC=CCC=C1` [1,3,5-cycloheptatriene] + C[S+](C)[O-], the activity coefficient was 5.7 ± 1.2.

Regarding `C=CCCC=C` [1,5-hexadiene] + CCCCCCCCCCCCCCCC, the activity coefficient was 0.8 ± 0.16.

In the case of `C=CCCC=C` [1,5-hexadiene] + C[S+](C)[O-], the activity coefficient came to 11.6 ± 2.4.

`Cc1ccc(C(C)C)cc1` [1-(1-methylethyl)-4-methylbenzene] + C[S+](C)[O-]: the activity coefficient is 15.1 ± 3.1.

Turning to `C#CCCCCC` [1-heptyne] + C[S+](C)[O-], the activity coefficient is 6.9 ± 1.4.

Turning to `C#CCCCC` [1-hexyne] + C[S+](C)[O-], the activity coefficient stood at 4.1 ± 0.8.

For the molecule `C#CCCCCCC` [1-octyne] + C[S+](C)[O-], the activity coefficient stood at 10.2 ± 2.1.

`C=CC1CC=CCC1` (configuration not stated) [4-ethenylcyclohexene] + C[S+](C)[O-]: the activity coefficient was 20.7 ± 4.2.

Regarding `ClC(Cl)(Cl)Br` [bromotrichloromethane] + C[S+](C)[O-], the activity coefficient came to 2.1 ± 0.4.

Regarding `C1=CCCCC1` [cyclohexene] + C[S+](C)[O-], the activity coefficient came out at 14.9 ± 3.

Consider `C1CCCCCCC1` [cyclooctane] + C[S+](C)[O-], for which the activity coefficient was 63.3 ± 13.

On to `C1=CCCC1` [cyclopentene] + C[S+](C)[O-], for which the activity coefficient was 7 ± 1.4.

As to `CC1CCCCC1` [methylcyclohexane] + C[S+](C)[O-], the activity coefficient amounted to 49.2 ± 10.

With `CC1CCCC1` [methylcyclopentane] + C[S+](C)[O-], the activity coefficient came to 29.5 ± 6.

In the case of `ClC(Cl)=C(Cl)Cl` [tetrachloroethene] + C[S+](C)[O-], the activity coefficient came out at 10.5 ± 2.1.

The data set is the same for the next values; noted with them: 298 K; Gas; Chromatography; x1 = 0.
With `C=CC1CC=CCC1` (configuration not stated) [4-ethenylcyclohexene] + CCCCCCCCCCCCCCCC, the activity coefficient is 0.96 ± 0.19.

Turning to `C1CCCCCCC1` [cyclooctane] + CCCCCCCCCCCCCCCC, the activity coefficient worked out at 0.96 ± 0.19.
